# Assay results as given in patent US20250344734A1, “UNSATURATED FATTY ACIDS AND THEIR USE TO MODIFY TASTE” (Firmenich Incorporated, priority 2022, published 2025).
# Key:
# T2R64 (TAS2R31) = target: T1, T2R64 (TAS2R31) (Homo sapiens, UniProt P59538); test: FLIPR calcium assay, block of bitter agonist response, T2R64; format: cell-based; details: unsaturated fatty acid concentration of 200 µM, cells stimulated with known bitter agonist
# T1 construct: expressed in transfected cells; host or cells: cells expressing a promiscuous G protein (e.g., G16g44)
# T1 sequence (P59538 1-309): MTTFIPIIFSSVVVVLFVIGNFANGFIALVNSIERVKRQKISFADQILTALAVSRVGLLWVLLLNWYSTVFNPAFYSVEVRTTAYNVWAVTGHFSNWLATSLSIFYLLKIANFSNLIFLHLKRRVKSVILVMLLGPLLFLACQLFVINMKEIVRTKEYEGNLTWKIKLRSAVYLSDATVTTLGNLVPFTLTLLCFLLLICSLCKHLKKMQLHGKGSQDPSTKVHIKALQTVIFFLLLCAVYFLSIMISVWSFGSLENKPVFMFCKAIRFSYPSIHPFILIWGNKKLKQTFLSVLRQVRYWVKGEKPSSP
# Procedure: (§1) Cells expressing a promiscuous […] (e.g., G16g44) were transfected with vectors encoding 18 functional bitter receptor cDNAs, with one receptor per transfection. The cells were transfected directly in 384-well format high-density plates and incubated for 28 hours. Later, cells were loaded with the Ca-specific dye Fluo4-AM. After an incubation of 60 minutes, excess dye is washed off, and cells are stimulated with a known bitter agonist for each receptor and various unsaturated fatty acids. Changes in intracellular fluorescence are recorded using a FLIPR instrument. Bitter antagonists and corresponding receptors are identified based on percentage inhibition of agonist's activity on a given receptor.
# (§2) The above protocol was carried out using 16 different unsaturated fatty acids. A particular T2R receptor was identified as being antagonized by a particular unsaturated fatty acid if it triggered a >25% block of agonist's cellular response at 200 μM concentration of unsaturated fatty acid. […] Table 2 indicates the sixteen (16) compounds tested by their compound number from Table 1 above. The 18 bitter taste receptors screened are the human bitter taste receptors we named. […]
# T2R04 (TAS2R04) = target: T2, T2R04 (TAS2R04) (Homo sapiens, UniProt Q9NYW5); test: FLIPR calcium assay, block of bitter agonist response, T2R04; format: cell-based; details: unsaturated fatty acid concentration of 200 µM, cells stimulated with known bitter agonist
# T2 construct: expressed in transfected cells; host or cells: cells expressing a promiscuous G protein (e.g., G16g44)
# T2 sequence (Q9NYW5 1-299): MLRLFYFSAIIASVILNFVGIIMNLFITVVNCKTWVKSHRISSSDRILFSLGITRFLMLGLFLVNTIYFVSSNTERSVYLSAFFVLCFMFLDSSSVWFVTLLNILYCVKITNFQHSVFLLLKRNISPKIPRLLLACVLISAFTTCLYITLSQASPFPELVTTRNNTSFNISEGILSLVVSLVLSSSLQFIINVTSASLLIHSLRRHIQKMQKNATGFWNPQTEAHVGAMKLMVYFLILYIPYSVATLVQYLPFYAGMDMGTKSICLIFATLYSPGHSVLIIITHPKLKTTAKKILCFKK
# Procedure: as §1, §2
smiles,measurement,setting,value
CC(C)=CCC/C(C)=C/C(=O)O [Compound 129],"percentage block of cellular response over baseline, 64",T2R64 (TAS2R31),>85%
same,"percentage block of cellular response over baseline, 04",T2R04 (TAS2R04),>90%
